# How the values were obtained:
# [1] = tested on: Eimeria tenellum; experiment: Preventive and treating activity against coccidiosis in a domestic fowl; assay type: in vivo; details: for Relation rate of the increase in the body weight: noninfection control = 100; for OPG: number of oocysts in 1 g of stool, 7 days after the inoculation; for Death rate: white leghorn chickens inoculated p.o. with oocysts; for preventive and treating activity against coccidiosis: conclusion in text from Table 5
# Experimental: The preventive and treating activity against coccidiosis in a domestic fowl Domestic fowls tested: white leghorns Basal feed:
# Method: • Fifty male white leghorn chickensl4 days of age were divided into 5 groups of 10 each. To the basal feed were added 50 and 100 ppm each of 5057A and 5057B. Infection with coccidiosis was done by inoculating […] per chicken of spore-forming oocysts of Eimeria tenellum directly p.o. into the crop of the chickens.
# Groupsl - 4 were reared with the feeds containing predetermined concentrations of the 5057 substances, starting from 1 day before the inoculation with oocysts. Group 5 is an infection control that was inoculated with oocysts and reared with the basal feed containing no agents tested and Group 6 is a noninfection control. After 7 days after the inoculation with oocysts, the number of oocysts (OPG) in 1 g of stool was counted.
# [2] = Feed efficiency test on swine; assay type: in vivo, swine (landrace); details: for The rate of feed requirement / The average increase in the body weight during the test period / The average ingested amount of feed during the test period / The improved ratio of the rate of feed requirement: 12 weeks; for The average increase in the body weight during the test period / The average ingested amount of feed during the test period: young pigs; for The improved ratio of the rate of feed requirement: versus no addition; for The total number of days of diarrheal stool in each group / The total number of days during the test period in each group: 6 pigs, period of 4 weeks
# Experimental: Feed efficiency test on swine
# Method: • Thirty young pigs were divided into 5 groups of 6 each in such a way that the average body weight is the same in each group. To the basal feed were added 0, 25, and 50 ppm each of 5057A and 5057B. The resulting basal feeds were administered over the period of 12 weeks and the body weight and the ingested amount of the feeds were measured. The total number of days that the pigs suffered from diarrhea during the period of 4 weeks was counted.
# [3] = Feed efficiency test on a ruminant; assay type: in vivo, Cattle (Holstein); details: 240 days; for The average increase in the body weight during the test period: castrated Holstein oxen; for The improved ratio of the rate of concentrated feed requirement: versus no addition
# Experimental: Feed efficiency test on a ruminant Cattle tested: Holstein
# Basal feed: • Concentrated feed: [formula]
# (§1) Method: • Twenty five castrated Holstein oxen 9 months of age were divided into 5 groups of 5 each in such a way that the average body weight is almost the same in each group. Concentrated basal feeds to which 0, 10, and 20 ppm each of 5057A and 5057B had been added were each administered over the period of 240 days. As a crude feed, 1 kg per animal of straw of rice plants were administered.
# [4] = Feed efficiency test on domestic fowls; assay type: in vivo; details: 70 days; for The average increase in the body weight during the test period / The average ingested amount of feed during the test period: chickens; for The rate of feed requirement: ingested feed / body weight increase; for The improved ratio of the rate of feed requirement: versus no addition
# Experimental: Feed efficiency test on domestic fowls
# Domestic fowls tested: species used exclusively for broiler (Aber Acres species) Basal feed:
# Method: • Fifty newborn chickens were divided into 5 groups of 10 each in such a way that the average body weight is the same in each group. Premixes of 5057A and 5057B were added to the foregoing basal feed so that the contents of 5057A and 5057B are .40 ppm and 80 ppm, respectively. This feed was administered to the animals over the period of 70 days, and the body weight and the ingested amount of the feed were measured.
# [5] = Propionic acid/acetic acid ratio in gastric juice from the rumen of the oxen tested; assay type: in vivo, Cattle (Holstein); details: for The propionic acid concentration/The acetic acid concentration (the average value): rumen gastric juice; for ratio between propionic acid/acetic acid in the gastric juice in the rumen: as compared with the case of no addition
# Experimental: as §1
# The administration of the feeds to which the present substances had been added improved the utilization rate of the concentrated feed by 10 - 17% and the increased amount of the body weight by 3 - 8%. The gastric juice from the rumen of the oxen tested was collected and measured for the concentrations of acetic and propionic acids, thus the ratio between them being calculated.
# [6] = Acute toxicity test; details: mouse, in vivo, mice
# Experimental: An acute toxicity test was carried out with mice. As a result, the LD50 value of the 5057A and 5057B substances is 50 mg/kg i.p. and 50 mg/kg or more p.o. [drawing 14] [drawing 15]
# [7] = 10 ppm, 1 day after the administration
# [8] = 10 ppm, 21 days after the administration
# [9] = 10 ppm, 56 days after the administration
# [10] = 20 ppm, 1 day after the administration
# [11] = 20 ppm, 21 days after the administration
# [12] = 20 ppm, 56 days after the administration
smiles,measurement,setting,value
CCC(C(=O)C(C)C(O)C(C)C1OC(O)(C(C)C(=O)O)C(C)CC1C)C1OC(C)(C2(O)OC(CC)(C(O)CC)CC2C)CC1C (stereo not drawn) [5057B],Relation rate of the increase in the body weight,[1]; 50 ppm in feed,106%
same,OPG,[1]; 50 ppm in feed,0 x 10^4
same,Death rate,[1]; 50 ppm in feed,0%
same,Relation rate of the increase in the body weight,[1]; 100 ppm in feed,106%
same,OPG,[1]; 100 ppm in feed,0 x 10^4
same,Death rate,[1]; 100 ppm in feed,0%
same,preventive and treating activity against coccidiosis,[1],have a preventive and treating activity against coccidiosis
same,The rate of feed requirement,[2]; 25 ppm in feed,2.348
same,The average increase in the body weight during the test period,[2]; 25 ppm in feed,47.62 kg
same,The average ingested amount of feed during the test period,[2]; 25 ppm in feed,111.8 kg
same,The improved ratio of the rate of feed requirement,[2]; 25 ppm in feed,4.6%
same,The total number of days of diarrheal stool in each group / The total number of days during the test period in each group,[2]; 25 ppm in feed,18/168
same,The rate of feed requirement,[2]; 50 ppm in feed,2.263
same,The average increase in the body weight during the test period,[2]; 50 ppm in feed,51.26 kg
same,The average ingested amount of feed during the test period,[2]; 50 ppm in feed,116.0 kg
same,The improved ratio of the rate of feed requirement,[2]; 50 ppm in feed,8.0%
same,The total number of days of diarrheal stool in each group / The total number of days during the test period in each group,[2]; 50 ppm in feed,6/168
same,The average ingested amount of concentrated feed during the test period,[3]; 10 ppm in concentrated feed,2406 kg
same,The rate of concentrated feed requirement,[3]; 10 ppm in concentrated feed,8.813
same,The average increase in the body weight during the test period,[3]; 10 ppm in concentrated feed,273 kg
same,The improved ratio of the rate of concentrated feed requirement,[3]; 10 ppm in concentrated feed,11.1%
same,The average ingested amount of concentrated feed during the test period,[3]; 20 ppm in concentrated feed,2354 kg
same,The rate of concentrated feed requirement,[3]; 20 ppm in concentrated feed,8.289
same,The average increase in the body weight during the test period,[3]; 20 ppm in concentrated feed,284 kg
same,The improved ratio of the rate of concentrated feed requirement,[3]; 20 ppm in concentrated feed,16.4%
same,The average increase in the body weight during the test period,[4]; 40 ppm in feed,2.67 kg
same,The average ingested amount of feed during the test period,[4]; 40 ppm in feed,5.74 kg
same,The rate of feed requirement,[4]; 40 ppm in feed,2.150
same,The improved ratio of the rate of feed requirement,[4]; 40 ppm in feed,6.6%
same,The average increase in the body weight during the test period,[4]; 80 ppm in feed,2.62 kg
same,The average ingested amount of feed during the test period,[4]; 80 ppm in feed,5.67 kg
same,The rate of feed requirement,[4]; 80 ppm in feed,2.164
same,The improved ratio of the rate of feed requirement,[4]; 80 ppm in feed,6.0%
same,The propionic acid concentration/The acetic acid concentration (the average value),[5]; [7],0.79
same,The propionic acid concentration/The acetic acid concentration (the average value),[5]; [8],0.76
same,The propionic acid concentration/The acetic acid concentration (the average value),[5]; [9],0.77
same,The propionic acid concentration/The acetic acid concentration (the average value),[5]; [10],0.83
same,The propionic acid concentration/The acetic acid concentration (the average value),[5]; [11],1.00
same,The propionic acid concentration/The acetic acid concentration (the average value),[5]; [12],0.93
same,ratio between propionic acid/acetic acid in the gastric juice in the rumen,[5],increases
same,LD50,[6]; ip,50 mg/kg
same,LD50,[6]; po,≥ 50 mg/kg
CCC(C(=O)C(C)C(O)C(C)C1OC(O)(C(C)C(=O)O)C(C)CC1C)C1OC(C)(C2(O)OC(CC)(C(C)O)CC2C)CC1C (stereo not drawn) [5057A],Relation rate of the increase in the body weight,[1]; 50 ppm in feed,104%
same,OPG,[1]; 50 ppm in feed,0.01 x 10^4
same,Death rate,[1]; 50 ppm in feed,0%
same,Relation rate of the increase in the body weight,[1]; 100 ppm in feed,103%
same,OPG,[1]; 100 ppm in feed,0 x 10^4
same,Death rate,[1]; 100 ppm in feed,0%
same,preventive and treating activity against coccidiosis,[1],have a preventive and treating activity against coccidiosis
same,The rate of feed requirement,[2]; 25 ppm in feed,2.353
same,The average increase in the body weight during the test period,[2]; 25 ppm in feed,45.35 kg
same,The average ingested amount of feed during the test period,[2]; 25 ppm in feed,106.7 kg
same,The improved ratio of the rate of feed requirement,[2]; 25 ppm in feed,4.3%
same,The total number of days of diarrheal stool in each group / The total number of days during the test period in each group,[2]; 25 ppm in feed,21/168
same,The rate of feed requirement,[2]; 50 ppm in feed,2.287
same,The average increase in the body weight during the test period,[2]; 50 ppm in feed,50.93 kg
same,The average ingested amount of feed during the test period,[2]; 50 ppm in feed,116.5 kg
same,The improved ratio of the rate of feed requirement,[2]; 50 ppm in feed,7.0%
same,The total number of days of diarrheal stool in each group / The total number of days during the test period in each group,[2]; 50 ppm in feed,11/168
same,The average ingested amount of concentrated feed during the test period,[3]; 10 ppm in concentrated feed,2413 kg
same,The rate of concentrated feed requirement,[3]; 10 ppm in concentrated feed,8.904
same,The average increase in the body weight during the test period,[3]; 10 ppm in concentrated feed,271 kg
same,The improved ratio of the rate of concentrated feed requirement,[3]; 10 ppm in concentrated feed,10.2%
same,The average ingested amount of concentrated feed during the test period,[3]; 20 ppm in concentrated feed,2365 kg
same,The rate of concentrated feed requirement,[3]; 20 ppm in concentrated feed,8.446
same,The average increase in the body weight during the test period,[3]; 20 ppm in concentrated feed,280 kg
same,The improved ratio of the rate of concentrated feed requirement,[3]; 20 ppm in concentrated feed,14.8%
same,The average increase in the body weight during the test period,[4]; 40 ppm in feed,2.54 kg
same,The average ingested amount of feed during the test period,[4]; 40 ppm in feed,5.59 kg
same,The rate of feed requirement,[4]; 40 ppm in feed,2.201
same,The improved ratio of the rate of feed requirement,[4]; 40 ppm in feed,4.3%
same,The average increase in the body weight during the test period,[4]; 80 ppm in feed,2.55 kg
same,The average ingested amount of feed during the test period,[4]; 80 ppm in feed,5.63 kg
same,The rate of feed requirement,[4]; 80 ppm in feed,2.218
same,The improved ratio of the rate of feed requirement,[4]; 80 ppm in feed,4.0%
same,The propionic acid concentration/The acetic acid concentration (the average value),[5]; [7],0.80
same,The propionic acid concentration/The acetic acid concentration (the average value),[5]; [8],0.73
same,The propionic acid concentration/The acetic acid concentration (the average value),[5]; [9],0.78
same,The propionic acid concentration/The acetic acid concentration (the average value),[5]; [10],0.83
same,The propionic acid concentration/The acetic acid concentration (the average value),[5]; [11],0.96
same,The propionic acid concentration/The acetic acid concentration (the average value),[5]; [12],0.86
same,ratio between propionic acid/acetic acid in the gastric juice in the rumen,[5],increases
same,LD50,[6]; ip,50 mg/kg
same,LD50,[6]; po,≥ 50 mg/kg
